Reference: US20130172294A1, “Treatment with VB-201” (Vascular Biogenics Ltd., priority 2010, published 2013)

Assay: Effect of food and capsule coating on single-dose pharmacokinetics (Example 3)
Format: in vivo, human
Method: Determination of VB-201 concentrations in plasma was performed using an HPLC-MS/MS (high performance liquid chromatography with tandem mass spectrometric detection) assay. Calibration was for a range of from 5 to 500 ng/ml for low doses and from 50 to 5000 ng/ml for high doses. Pharmacokinetic parameters were estimated by using a non-compartmental method, except for the AUC (area under curve), which was determined using a (log-) trapezoidal rule as the area above the previous trough level. All calculations were made using PKWizard (developed by Russell Barbare and Dr. […] was validated against WinNonlin (Pharsight Corp.), which is an FDA-recognized validated program. Pharmacokinetic parameters were calculated by the program according to standard methods used in the art. Calculation of the pharmacokinetic characteristics was based on the actual blood sampling time (in hours), with predose times set to zero. Concentrations below the LLOQ (lower limit of quantification; 4.974 ng/ml) were assumed to be zero. The effects of food on the pharmacokinetics of enteric coated and non-coated VB-201 capsules were investigated in a double-blind, placebo-controlled study in healthy subjects. Cohorts of six subjects each received a single dose of 10 mg, 2×10 mg or 20 mg VB-201 in the morning. […] Subjects were randomly assigned to receive the drug when fed (i.e., following completion of a standardized high fat meal) or when fasting (i.e., fasting for at least 10 hours). […] Subjects then underwent an additional 8 day washout period, after which subjects underwent a second administration. Subjects who received the first administration when fasting, received the second administration when fed, and subjects who received the first administration when fed, received the second administration when fasting. Following the second administration, blood samples were taken at the same times post-dose as previously. Concentration-time curves were constructed for time periods of up to 144 hours. Pharmacokinetic parameters were calculated based on data for the first 24 hours and for the whole 144 hours. […] Nevertheless, parameters were also calculated from data covering the first 24 hours in order to compare parameters with previous studies. Statistical comparisons of doses, coated vs. non-coated capsules, feeding vs. fasting and coating-feeding interactions were performed using a mixed model ANOVA in an SAS 8.02 software package (SAS Institute, Cary, N.C.) using PROC MIXED

- AUC (0-infinity, from 24) (1 × 10 mg coated fasting): 4801 ng·h/mL
- AUC (0-infinity, from 144) (1 × 10 mg coated fasting): 8017 ng·h/mL
- AUC(0-24) (1 × 10 mg coated fasting): 2602 ng·h/mL
- AUC(0-144) (1 × 10 mg coated fasting): 7397 ng·h/mL
- AUMC (0-24) (1 × 10 mg coated fasting): 33556 hours^2*ng/ml
- AUMC (0-infinity) (1 × 10 mg coated fasting): 467760 hours^2*ng/ml
- Cl/F (0-24) (1 × 10 mg coated fasting): 3.293 L/h
- Cl/F (from 144) (1 × 10 mg coated fasting): 1.580 L/h
- Cmax (1 × 10 mg coated fasting): 171.4 ng/mL
- Ke (from 24) (1 × 10 mg coated fasting): 0.0438 h⁻¹
- Ke (from 144) (1 × 10 mg coated fasting): 0.0201 h⁻¹
- MTT (0-24) (1 × 10 mg coated fasting): 12.8 h
- MTT (from 144) (1 × 10 mg coated fasting): 60.7 h
- T1/2 (from 24) (1 × 10 mg coated fasting): 17.8 h
- T1/2 (from 144) (1 × 10 mg coated fasting): 37.6 h
- Tmax (1 × 10 mg coated fasting): 9.33 h
- AUC (0-infinity, from 24) (1 × 10 mg coated fed): 5898 ng·h/mL
- AUC (0-infinity, from 144) (1 × 10 mg coated fed): 9751 ng·h/mL
- AUC(0-24) (1 × 10 mg coated fed): 2202 ng·h/mL
- AUC(0-144) (1 × 10 mg coated fed): 8583 ng·h/mL
- AUMC (0-24) (1 × 10 mg coated fed): 32798 hours^2*ng/ml
- AUMC (0-infinity) (1 × 10 mg coated fed): 699311 hours^2*ng/ml
- Cl/F (0-24) (1 × 10 mg coated fed): 1.883 L/h
- Cl/F (from 144) (1 × 10 mg coated fed): 1.091 L/h
- Cmax (1 × 10 mg coated fed): 186.4 ng/mL
- Ke (from 24) (1 × 10 mg coated fed): 0.0352 h⁻¹
- Ke (from 144) (1 × 10 mg coated fed): 0.0166 h⁻¹
- MTT (0-24) (1 × 10 mg coated fed): 15.1 h
- MTT (from 144) (1 × 10 mg coated fed): 70.7 h
- T1/2 (from 24) (1 × 10 mg coated fed): 23.4 h
- T1/2 (from 144) (1 × 10 mg coated fed): 45.0 h
- Tmax (1 × 10 mg coated fed): 13.67 h
- AUC (0-infinity, from 24) (1 × 10 mg non-coated fasting): 9375 ng·h/mL
- AUC (0-infinity, from 144) (1 × 10 mg non-coated fasting): 15995 ng·h/mL
- AUC(0-24) (1 × 10 mg non-coated fasting): 5759 ng·h/mL
- AUC(0-144) (1 × 10 mg non-coated fasting): 14544 ng·h/mL
- AUMC (0-24) (1 × 10 mg non-coated fasting): 67186 hours^2*ng/ml
- AUMC (0-infinity) (1 × 10 mg non-coated fasting): 924243 hours^2*ng/ml
- Cl/F (0-24) (1 × 10 mg non-coated fasting): 1.184 L/h
- Cl/F (from 144) (1 × 10 mg non-coated fasting): 0.695 L/h
- Cmax (1 × 10 mg non-coated fasting): 364.5 ng/mL
- Ke (from 24) (1 × 10 mg non-coated fasting): 0.0575 h⁻¹
- Ke (from 144) (1 × 10 mg non-coated fasting): 0.0190 h⁻¹
- MTT (0-24) (1 × 10 mg non-coated fasting): 11.7 h
- MTT (from 144) (1 × 10 mg non-coated fasting): 54.2 h
- T1/2 (from 24) (1 × 10 mg non-coated fasting): 13.6 h
- T1/2 (from 144) (1 × 10 mg non-coated fasting): 39.7 h
- Tmax (1 × 10 mg non-coated fasting): 7.67 h
- AUC (0-infinity, from 24) (1 × 10 mg non-coated fed): 7019 ng·h/mL
- AUC (0-infinity, from 144) (1 × 10 mg non-coated fed): 16062 ng·h/mL
- AUC(0-24) (1 × 10 mg non-coated fed): 4855 ng·h/mL
- AUC(0-144) (1 × 10 mg non-coated fed): 13717 ng·h/mL
- AUMC (0-24) (1 × 10 mg non-coated fed): 60611 hours^2*ng/ml
- AUMC (0-infinity) (1 × 10 mg non-coated fed): 1254665 hours^2*ng/ml
- Cl/F (0-24) (1 × 10 mg non-coated fed): 1.552 L/h
- Cl/F (from 144) (1 × 10 mg non-coated fed): 0.702 L/h
- Cmax (1 × 10 mg non-coated fed): 343.3 ng/mL
- Ke (from 24) (1 × 10 mg non-coated fed): 0.0670 h⁻¹
- Ke (from 144) (1 × 10 mg non-coated fed): 0.0180 h⁻¹
- MTT (0-24) (1 × 10 mg non-coated fed): 12.5 h
- MTT (from 144) (1 × 10 mg non-coated fed): 70.3 h
- T1/2 (from 24) (1 × 10 mg non-coated fed): 11.2 h
- T1/2 (from 144) (1 × 10 mg non-coated fed): 47.7 h
- Tmax (1 × 10 mg non-coated fed): 10.17 h
- AUC (0-infinity, from 24) (1 × 20 mg coated fasting): 9794 ng·h/mL
- AUC (0-infinity, from 144) (1 × 20 mg coated fasting): 15637 ng·h/mL
- AUC(0-24) (1 × 20 mg coated fasting): 5362 ng·h/mL
- AUC(0-144) (1 × 20 mg coated fasting): 14579 ng·h/mL
- AUMC (0-24) (1 × 20 mg coated fasting): 68472 hours^2*ng/ml
- AUMC (0-infinity) (1 × 20 mg coated fasting): 849853 hours^2*ng/ml
- Cl/F (0-24) (1 × 20 mg coated fasting): 3.188 L/h
- Cl/F (from 144) (1 × 20 mg coated fasting): 2.387 L/h
- Cmax (1 × 20 mg coated fasting): 366.3 ng/mL
- Ke (from 24) (1 × 20 mg coated fasting): 0.0385 h⁻¹
- Ke (from 144) (1 × 20 mg coated fasting): 0.0203 h⁻¹
- MTT (0-24) (1 × 20 mg coated fasting): 12.8 h
- MTT (from 144) (1 × 20 mg coated fasting): 53.8 h
- T1/2 (from 24) (1 × 20 mg coated fasting): 19.9 h
- T1/2 (from 144) (1 × 20 mg coated fasting): 35.6 h
- Tmax (1 × 20 mg coated fasting): 8.17 h
- AUC (0-infinity, from 24) (1 × 20 mg coated fed): 20054 ng·h/mL
- AUC (0-infinity, from 144) (1 × 20 mg coated fed): 16687 ng·h/mL
- AUC(0-24) (1 × 20 mg coated fed): 4655 ng·h/mL
- AUC(0-144) (1 × 20 mg coated fed): 14968 ng·h/mL
- AUMC (0-24) (1 × 20 mg coated fed): 66330 hours^2*ng/ml
- AUMC (0-infinity) (1 × 20 mg coated fed): 1070977 hours^2*ng/ml
- Cl/F (0-24) (1 × 20 mg coated fed): 1.400 L/h
- Cl/F (from 144) (1 × 20 mg coated fed): 1.583 L/h
- Cmax (1 × 20 mg coated fed): 306.6 ng/mL
- Ke (from 24) (1 × 20 mg coated fed): 0.0230 h⁻¹
- Ke (from 144) (1 × 20 mg coated fed): 0.0179 h⁻¹
- MTT (0-24) (1 × 20 mg coated fed): 14.9 h
- MTT (from 144) (1 × 20 mg coated fed): 62.9 h
- T1/2 (from 24) (1 × 20 mg coated fed): 53.2 h
- T1/2 (from 144) (1 × 20 mg coated fed): 39.6 h
- Tmax (1 × 20 mg coated fed): 11.67 h
SMILES: CCCCCCCCCCCCCCCCOCC(COP(=O)([O-])OCC[N+](C)(C)C)OCCCCC(=O)O (stereo not drawn) [VB-201, 1-hexadecyl-2-(4′-carboxybutyl)-glycerol-3-phosphocholine]
